Experimental data from patent US20060292657A1, “Phex substrates and methods using same” (priority 2003, published 2006).
Square brackets hold non-standard residues; d marks the D form. Primed or numbered codes have the meaning given here. Ends that are not written are not given here. Peptide text beside a SMILES is read from it. * marks the point of attachment. EDDnp = O=[N+]([O-])c1ccc(NCCN*)c([N+](=O)[O-])c1; Dnp = O=[N+]([O-])c1ccc(*)c([N+](=O)[O-])c1; Dnp′ = 2,4-dinitrophenyl; 2Abz = Nc1ccccc1C(=O)O

How the values were obtained:
Format in all cases: biochemical
secPHEX [1] = biological target: T1, secPHEX (Homo sapiens, UniProt P78562); test: IC50 determination of PHEX inhibitor, fluorigenic substrate assay
T1 construct: pure soluble form of PHEX (secPHEX); made in house
T1 sequence (P78562 46-749 limits assumed): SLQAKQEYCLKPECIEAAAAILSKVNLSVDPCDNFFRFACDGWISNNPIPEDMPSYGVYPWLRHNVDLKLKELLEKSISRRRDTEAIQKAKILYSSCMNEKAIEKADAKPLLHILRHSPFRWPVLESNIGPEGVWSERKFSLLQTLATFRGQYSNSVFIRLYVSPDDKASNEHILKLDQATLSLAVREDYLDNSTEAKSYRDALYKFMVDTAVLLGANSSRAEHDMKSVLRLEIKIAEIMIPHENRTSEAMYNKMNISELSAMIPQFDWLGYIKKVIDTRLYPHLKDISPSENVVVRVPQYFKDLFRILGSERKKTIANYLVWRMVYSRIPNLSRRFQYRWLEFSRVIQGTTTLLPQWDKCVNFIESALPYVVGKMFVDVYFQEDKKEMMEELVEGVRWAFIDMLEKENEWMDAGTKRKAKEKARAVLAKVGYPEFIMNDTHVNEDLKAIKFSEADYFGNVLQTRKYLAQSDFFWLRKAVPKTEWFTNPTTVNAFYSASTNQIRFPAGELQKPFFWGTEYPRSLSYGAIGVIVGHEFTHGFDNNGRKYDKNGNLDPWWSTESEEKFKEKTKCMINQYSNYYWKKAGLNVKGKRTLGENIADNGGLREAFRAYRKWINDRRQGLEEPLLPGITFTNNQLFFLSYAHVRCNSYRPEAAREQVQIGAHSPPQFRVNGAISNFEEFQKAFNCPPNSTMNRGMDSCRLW
Experimental: secPHEX enzymatic activity was determined using a fluorigenic substrate where increase of fluorescence was proportional to substrate conversion to products. […] Of these, S3 was the most preferred substrate. S3 was synthesized as described above.
The reaction was carried out in a total volume of 200 μl constituted of buffer (50 mM Mes(NaOH) pH 6.5, 150 mM NaCl) containing various concentrations of the tested PHEX inhibitor (3×10^−5 to 1×10^−11 M) and 100 ng of purified secPHEX. The enzymatic reaction was initiated with the addition of the fluorigenic substrate at a final concentration of 10 μM. The fluorescent reaction product was excited at 320 nm with fluoresce emission read at 420 nm every four minutes over a one-hour period using 96-well plate reader (Perkin-Elmer, HTS-7000™). The initial reaction rate was calculated from the acquired fluorescence-time data as a slope using Microsoft Excell™. Further examples can be found in the co-pending PCT application number PCT/CA03/01893.
IC50 was determined with a plot of the initial rates computed above as a function of inhibitor concentration using the one site competition equation of GraphPad Prism™ version 3.03 (GraphPad™ Software Inc.).

secPHEX [2] = biological target: T1, secPHEX; test: pH activity profile and NaCl dependence of secPHEX hydrolysis
Experimental: FIG. 2 graphically illustrates pH and NaCl (inset) dependence of Abz-GFSDYK(Dnp)-OH (SEQ ID NO:3) hydrolysis by secPHEX. * k,t/Km values for the hydrolysis of Abz-GFSDYK(Dnp)-OH (SEQ ID NO:3) by PHEX were determined in presence of different buffers and pH conditions as described herein under the heading “Experimental Procedures” below. In the inset, the effect of NaCl is shown: Abz-GFSDYK(Dnp)-OH (SEQ ID NO:3) was incubated with secPHEX in 0.01 M Bis-Tris buffer, pH 5.5 with NaCl (0 to 0.5 M);
The pH dependence was studied using […] of Abz-GFSDYK(Dnp)-OH (SEQ ID NO:3) over a pH range of 3.5 to 8.5. The buffers used were as follows: 0.01 M sodium acetate (3.5<pH<5.1), 0.01 M Bis-Tris (5.1<pH<6.5), 0.01 M Hepes (6.5<pH<7.4) and 0.01 M Tris-HCI (7.4<pH<8.4), containing 0.14 M NaCl. Enzymatic activity was followed at 37° C. using the continuous fluorimetric assay and the apparent second-order rate constant (*kcat/Km) was calculated as described above for each pH.
The influence of salt on secPHEX catalytic activity was investigated using 0.2 μM of Abz-GFSDYK(Dnp)-OH (SEQ ID NO:3) as substrate at 37° C., in 0.01 M Bis-Tris buffer, pH 5.5, over a NaCl range of 0 to 500 mM. The increase in fluorescence was continuously measured at 37° C. and the apparent second-order rate constant (*kcat/Km) for the different NaCl concentrations was calculated as described above.

secPHEX [3] = biological target: T1, secPHEX; test: Determination of secPHEX activity and concentration in serum with fluorigenic substrate; settings: activity determination in serum
Experimental: FIG. 6 graphically illustrates the secPHEX enzymatic activity on a fluorigenic substrate of the present invention in rat serum. The observed fluorescence increase was proportional to the reaction product formation. The reaction was carried out in a total volume of 200 μl constituted of buffer: 50 mM Hepes (NaOH) pH 7.4, 150 mM NaCl, 5*10−6 M captopril (ACE inhibitor), containing 10 μl of rat serum in which purified sPHEX was spiked. The enzymatic reaction was initiated by the addition of the fluorigenic substrate (Abz-GFSDYK-Dnp) (SEQ ID NO:3) at a final concentration of 20 μM. The fluorescent reaction product was excited at 320 nm and fluorescence recorded at 420 nm every four minutes over a one-hour period in a 96-well plate reader (Perkin-Elmer, HTS-7000). The initial enzymatic speed rate of the reaction was calculated for each condition. The reaction was carried out in presence of 5 mM EDTA to assess whether the assay is specific to metallopeptidase. Measurements were done in duplicates.
secPHEX enzymatic activity was determined using a fluorigenic substrate where increase of fluorescence was proportional to substrate conversion to products. […] Of these, S3 was the most preferred substrate. […]
The reaction was carried out in a total volume of 200 μl constituted of buffer (50 mM Mes(NaOH) pH 6.5, 150 mM NaCl, 5×10^−6 M captopril (ACE inhibitor)) and serum (preferably between 2 to 50 μl). […] The fluorescent reaction product is excited at 320 nm with fluoresce emission read at 420 nm every four minutes over a one-hour period using 96-well plate reader (Perikin-Elmer, HTS-7000™). The initial reaction rate was calculated from the acquired fluorescence-time data as a slope using Microsoft Excell™. PHEX Enzymatic activity (Vi) was calculated by subtracting to the initial rate of fluorescence (Vitot) with the same measured in presence of EDTA 5 mM (ViEDTA). […]
The actual secPHEX concentration was determined from a calibration curve (Vi Vs secPHEX concentration) obtained by serial dilution of secPHEX in serum or other biological media as required.

secPHEX [4] = biological target: T1, secPHEX; test: Kinetic parameters for hydrolysis of internally quenched fluorogenic peptides by secPHEX; settings: for hydrolysis by secPHEX (result in words): 37° C., 10 mM Bis-Tris buffer pH 5.5, 150 mM NaCl
Experimental: The human recombinant secPHEX was obtained following the procedure previously described (17, WO 00/50580). Purified secPHEX concentration was determined using the Bradford method (DC protein assay kit; Bio-Rad, Mississauga, ON, Canada). Membrane-bound recombinant human PHEX was expressed in LLC-PK1 cells (17, (WO 00/50580)) and membranes were prepared essentially as described by Guo et al. (34). Briefly, transfected cells resuspended in lysis buffer (150 mM NaCl, 20 mM Tris.HCl, pH 7.6) were disrupted by sonication. Cell debris were removed by centrifugation at 300 g for 15 min at 4 °C. Membranes were collected by centrifugation at 30,000 g for 50 min and solubilized for 2h with 1% n-dodecyl-β-D-maltoside in lysis buffer. Insoluble material was pelleted by centrifugation at 10,000 g for 15 min and protein concentrations of the supernatant determined using the Bradford method described above. PHEX amounts were evaluated by immunoblotting as described previously (17). NEP expression and purification were performed as described previously (36).
The hydrolysis of the IQFPs, at 37° C., in 10 mM Bit-Tris buffer pH 5.5 (0.35 to 1.0 ml final volume) containing 150 mM NaCl, was continuously followed measuring the fluorescence at γem=420 nm and γex=320 nm in a Hitachi F-2000™ spectrofluorometer. The cuvefte containing the buffer and the substrate was placed in a thermostatically controlled cell compartment for 5 min before the addition of the enzyme and the increase in fluorescence with time was continuously recorded for 5-10 min. The enzyme concentration for initial rate determination was chosen at a level intended to hydrolyze less than 5% of the substrate present. […] The kinetic parameters Km and kcat were calculated by the non-linear regression data analysis Grafit program (42). The kcat/Km values were calculated as the ratio of these two determined parameters. The apparent second order rate constant kcat/Km (*kIt/Km) was determined under pseudo first-order conditions, where [S]<<Km. […]

Compound	suitability as secPHEX substrate (secPHEX [1])	suitability as secPHEX substrate (secPHEX [3])	also measured
Nc1ccccc1C(=O)NCC(=O)N[C@@H](Cc1ccccc1)C(=O)N[C@@H](CO)C(=O)N[C@@H](CC(=O)O)C(=O)N[C@@H](Cc1ccc(O)cc1)C(=O)N[C@@H](CCCCNc1ccc([N+](=O)[O-])cc1[N+](=O)[O-])C(=O)O [I-Abz-GFS↓DYK(Dnp)-OH, Abz-GFSDYK(Dnp)-OH] (H-[2Abz]GFSDYK(Dnp)-OH)	good secPHEX substrate	good secPHEX substrate	kcat/Km with 150 mM NaCl lower than in the absence of added salt (secPHEX [2]; 10 mM Bis Tris, pH 5,5): more than 2 fold; pH of maximum kcat/Km (secPHEX [2]; pH range of 3.5 to 8.5, 37° C.): ~5.5
CC(C)C[C@H](NC(=O)[C@H](Cc1c[nH]cn1)NC(=O)[C@H](CC(=O)O)NC(=O)c1ccccc1N)C(=O)N[C@@H](CO)C(=O)N[C@@H](CC(=O)O)C(=O)N[C@H](C(=O)N[C@@H](CO)C(=O)N[C@H](C(=O)N[C@@H](CCC(N)=O)C(=O)NCCNc1ccc([N+](=O)[O-])cc1[N+](=O)[O-])[C@@H](C)O)[C@@H](C)O [I-Abz-D125-HLS↓DTSTQ-EDDnp, Abz-DHLSDTSTQ-edDnp] (H-[2Abz]DHLSDTSTQ-EDDnp)	good secPHEX substrate	good secPHEX substrate	–
NC(=O)[C@H](CCCCNc1ccc([N+](=O)[O-])cc1[N+](=O)[O-])NC(=O)[C@H](Cc1ccc(O)cc1)NC(=O)[C@H](CCC(=O)O)NC(=O)[C@H](CO)NC(=O)[C@H](Cc1ccccc1)NC(=O)CNC(=O)c1ccccc1N [V-Abz-GFSEYK(Dnp)-NH2, Abz-GFSEYK(Dnp)-NH2] (H-[2Abz]GFSEYK(Dnp)-NH2)	–	–	hydrolysis by secPHEX (result in words) (secPHEX [4]): Resistant; hydrolysis by secPHEX (result in words) (secPHEX [4]; listed as Abz-GFSEYK(Dnp)-NH2): resistant to hydrolysis
NC(=O)[C@H](CCCCNc1ccc([N+](=O)[O-])cc1[N+](=O)[O-])NC(=O)[C@H](Cc1ccc(O)cc1)NC(=O)[C@H](CC(=O)O)NC(=O)[C@H](CO)NC(=O)[C@H](Cc1ccccc1)NC(=O)CNC(=O)c1ccccc1N [II-Abz-GFS↓DYK(Dnp)-NH2, Abz-GFSDYK(Dnp)-NH2] (H-[2Abz]GFSDYK(Dnp)-NH2)	–	–	decrease in catalytic efficiency compared with Abz-GFSDYK(Dnp)-OH (secPHEX [4]; COOH-terminus amidated analogue): 6 fold
Abz-GFRDWK-Dnp ([2Abz]GFRDWK-{Dnp′}) [S1]	good secPHEX substrate	good secPHEX substrate	–
